Test results as given in US10941157B2, “Pesticidal compositions and uses thereof” (Gilead Apollo, LLC, priority 2015, dated 2021).
In brackets after ≈: the same amount, converted by molar mass.

Assays:
Fusarium graminearum = assay type: in vivo; settings: spray on flowering Triticum aestivum cv. Samson, inoculated 24 hours after treatment, evaluated 14 days later
[1] = test system: Fusarium moniliforme (Fm); test: In vitro pathogen growth inhibition assay, Fm; assay type: cell-based; settings: Fusarium verticillioides; ≥90% growth inhibition; 48 hours; vs 2% DMSO control; read-out: Compound Concentration (ppm) sufficient for ≥90% inhibition of Fm
Outline: (§1)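 Spores in 17% V8 liquid medium, or 1.5 mm Rs mycelial plugs in ¼ PDB, incubated with compound; final concentration checked by OD600 for precipitation. OD readings at 24 and 48 h, blank-subtracted, plus visual ratings; value is concentration giving ≥90% growth inhibition.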

Diplodia maydis (Dm) = test: In vitro pathogen growth inhibition assay, Dm; assay type: cell-based; settings: Stenocarpella maydis, 48 h, ≥90% growth inhibition; 48 hours; vs 2% DMSO control; read-out: Compound Concentration (ppm) sufficient for ≥90% inhibition of Dm
Outline: (§2)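 Spores of Dm, Fv and Pc were diluted in 17% V8 liquid medium; Rs used 1.5 mm mycelial plugs in ¼ PDB. Compounds from 2.5 mg/ml DMSO stocks were combined with inoculum, growth was read by OD600 at 24 and 48 h with blank subtraction, and the reported value is the concentration giving ≥90% inhibition.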

[2] = test system: Blumeria graminis f. sp. hordei; test: Foliar protection test for barley powdery mildew control; assay type: in vivo; settings: foliar spray on Hordeum vulgare cv. Perry, inoculated 24 hours after treatment, evaluated 7 days later
Outline: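 Six-day-old barley (cv. Perry) sprayed to wetness on both leaf sides; 24 h later inoculated by shaking spores from infected stock plants. Kept at 20 to 22° C, 70% relative humidity; mildew colonization assessed 7 days later.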

[3] = test system: Mycosphaerella graminicola (synthetic Septoria tritici); test: Foliar protection test for wheat septoria leaf blotch control; assay type: in vivo; settings: foliar spray on Triticum aestivum cv. WinterHawk, inoculated 1 hour after treatment, evaluated 16 days later
Sphaerotheca fuliginea = test: Foliar protection for cucumber powdery mildew control; assay type: in vivo; settings: foliar spray on Cucumis sativus cv. Straight Eight, inoculated 24 hours after treatment, evaluated 7 days later
Outline: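 Cucumber plants (cv. Straight Eight, 10 days old) sprayed to wetness on both leaf surfaces, then inoculated 24 h later by shaking sporulating stock plants over them. Held at 23–27 °C, 16 h light, 60% RH. Mildew colonization scored 7 days after inoculation, at compound concentrations of 10 ppm or lower.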

Puccinia triticina = test: Foliar protection test for wheat leaf rust control; assay type: in vivo; settings: foliar application to wheat (Triticum aestivum cv. Winterhawk), evaluated 10 days later
Phakopsora pachyrhizi = test: Foliar protection test for Asian soybean rust control; assay type: in vivo; settings: foliar application to soybean (Glycine max AG4832), percent disease area evaluated 14 days later
Botrtyis cinerea (Bc) = test: In vitro pathogen growth inhibition assay, Bc; assay type: cell-based; settings: 48 h, ≥90% growth inhibition; 48 hours; vs 2% DMSO control; read-out: Compound Concentration (ppm) sufficient for ≥90% inhibition of Bc
Outline: as §1

Septoria tritici (St) = test: In vitro pathogen growth inhibition assay, St; assay type: cell-based; settings: Zymoseptoria tritici, 48 h, ≥90% growth inhibition; 48 hours; vs 2% DMSO control; read-out: Compound Concentration (ppm) sufficient for ≥90% inhibition of St
Outline: as §1

[4] = test system: Fusarium virguliforme (Fv); test: In vitro pathogen growth inhibition assay, Fv; assay type: cell-based; settings: ≥90% growth inhibition, 48 hours, vs 2% DMSO control, read-out: Compound Concentration (ppm) sufficient for ≥90% inhibition of Fv
Outline: as §2

Rhizoctonia solani (Rs) = test: In vitro pathogen growth inhibition assay, Rs (mycelial plugs); assay type: cell-based; settings: Rhizoctonia solani, 48 h, ≥90% growth inhibition; mycelial plugs; 48 hours; vs 2% DMSO control; read-out: Compound Concentration (ppm) sufficient for ≥90% inhibition of Rs
Outline: as §2

[5] = test system: Phytophthora capsici (Pc); test: In vitro pathogen growth inhibition assay, Pc; assay type: cell-based; settings: 48 h, ≥90% growth inhibition, 48 hours, vs 2% DMSO control, read-out: Compound Concentration (ppm) sufficient for ≥90% inhibition of Pc
Outline: as §2

[6] = test system: Collectotrichum graminicola (Cg); test: In vitro pathogen growth inhibition assay, Cg; assay type: cell-based; settings: 48 h, ≥90% growth inhibition; 48 hours; vs 2% DMSO control; read-out: Compound Concentration (ppm) sufficient for ≥90% inhibition of Cg
Outline: as §1

Q: With `COc1ccc(F)cc1[C@H](Cn1c(=O)n(C(C)(C)C(=O)NC(C)C)c(=O)c2c(C)c(-n3cccn3)sc21)OC[C@H](C)C#N` [Compound I-263, 2-(1-((R)-2-((R)-2-cyanopropoxy)-2-(5-fluoro-2-methoxyphenyl)ethyl)-5-methyl-2,4-dioxo-6-(1H-pyrazol-1-yl)-1,4-dihydrothieno[2,3-d]pyrimidin-3 (2H)-yl)-N-isopropyl-2-methylpropanamide] as the compound, how does the “Wheat Fusarium Head Blight Control at a compound concentration of 25 ppm or lower” value (Fusarium graminearum) read?
A: B (from 50 to 69% control of wheat fusarium head blight)

Q: What about the IC90 [1] of the same compound?
A: ≥ 0.08 µg/mL

Q: What about the IC90 (Diplodia maydis (Dm)) of the same compound?
A: 2 µg/mL (≈ 3.27 µM)

Q: What about the “Barley Powdery Mildew Control at a compound concentration of 10 ppm or lower” value [2] of the same compound?
A: A (from 70% to 84% control of barley powdery mildew)

Q: And the “Septoria Leaf Blotch Control at a compound concentration of 25 ppm or lower” value [3]?
A: D (<25% control of wheat septoria leaf blotch)

Q: And the “Cucumber Powdery Mildew Control at a compound concentration of 10 ppm or lower” value (Sphaerotheca fuliginea)?
A: AA (≥85% control of cucumber powdery mildew)

Q: And the “Wheat Leaf Rust Control at a compound concentration of 10 ppm or lower” value (Puccinia triticina)?
A: AA (≥85% control of wheat leaf rust)

Q: And the “Asian Soybean Rust Control at a compound concentration of 25 ppm or lower” value (Phakopsora pachyrhizi)?
A: AA (≥85% control of Asian soybean rust)

Q: And the IC90 (Botrtyis cinerea (Bc))?
A: 0.4 µg/mL (≈ 0.655 µM)

Q: What about the IC90 (Septoria tritici (St)) of the same compound?
A: > 10 µg/mL

Q: What about the IC90 [4] of the same compound?
A: 0.4 µg/mL (≈ 0.655 µM)

Q: And the IC90 (Rhizoctonia solani (Rs))?
A: 0.4 µg/mL (≈ 0.655 µM)

Q: And the IC90 [5]?
A: ≥ 50 µg/mL

Q: What about the IC90 [6] of the same compound?
A: 0.4 µg/mL (≈ 0.655 µM)

Q: What does the source list for `CCNC(=O)C(C)(C)n1c(=O)c2c(C)c(C(=O)OCC)sc2n(C[C@H](OCCC#N)c2cc(F)ccc2OC)c1=O` [Compound I-231, (R)-ethyl-1-(2-(2-cyanoethoxy)-2-(5-fluoro-2-methoxyphenyl)ethyl)-3-(1-(ethylamino)-2-methyl-1-oxopropan-2-yl)-5-methyl-2,4-dioxo-1,2,3,4-tetrahydrothieno[2,3-d]pyrimidine-6-carboxylate]?
A: Wheat Fusarium Head Blight Control at a compound concentration of 25 ppm or lower (Fusarium graminearum): C (from 25 to 49% control of wheat fusarium head blight); IC90 [1]: 0.08 µg/mL (≈ 0.136 µM); IC90 (Diplodia maydis (Dm)): 0.4 µg/mL (≈ 0.68 µM); Barley Powdery Mildew Control at a compound concentration of 10 ppm or lower [2]: AA (≥85% control of barley powdery mildew); Septoria Leaf Blotch Control at a compound concentration of 25 ppm or lower [3]: C (from 25 to 49% control of wheat septoria leaf blotch); Cucumber Powdery Mildew Control at a compound concentration of 10 ppm or lower (Sphaerotheca fuliginea): AA (≥85% control of cucumber powdery mildew); Wheat Leaf Rust Control at a compound concentration of 10 ppm or lower (Puccinia triticina): AA (≥85% control of wheat leaf rust); Asian Soybean Rust Control at a compound concentration of 25 ppm or lower (Phakopsora pachyrhizi): A (from 70% to 84% control of Asian soybean rust); IC90 (Botrtyis cinerea (Bc)): 2 µg/mL (≈ 3.4 µM); IC90 (Septoria tritici (St)): ≥ 10 µg/mL; IC90 [4]: 2 µg/mL (≈ 3.4 µM); IC90 (Rhizoctonia solani (Rs)): 0.08 µg/mL (≈ 0.136 µM); IC90 [5]: > 50 µg/mL; IC90 [6]: 0.4 µg/mL (≈ 0.68 µM)

Q: For `CCOC(=O)c1sc2c(c1C)c(=O)n(C(C)(C)C(=O)NC(C)C)c(=O)n2C[C@H](OCCC#N)c1ccccc1OC` [Compound I-233, (R)-ethyl-1-(2-(2-cyanoethoxy)-2-(2-methoxyphenyl)ethyl)-3-(1-(isopropylamino)-2-methyl-1-oxopropan-2-yl)-5-methyl-2,4-dioxo-1,2,3,4-tetrahydrothieno[2,3-d]pyrimidine-6-carboxylate], which “Wheat Fusarium Head Blight Control at a compound concentration of 25 ppm or lower” value (Fusarium graminearum) is on record?
A: C (from 25 to 49% control of wheat fusarium head blight)

Q: And the IC90 [1]?
A: 0.08 µg/mL (≈ 0.137 µM)

Q: And the IC90 (Diplodia maydis (Dm))?
A: 0.4 µg/mL (≈ 0.684 µM)

Q: And the “Barley Powdery Mildew Control at a compound concentration of 10 ppm or lower” value [2]?
A: AA (≥85% control of barley powdery mildew)

Q: What about the “Septoria Leaf Blotch Control at a compound concentration of 25 ppm or lower” value [3] of the same compound?
A: C (from 25 to 49% control of wheat septoria leaf blotch)

Q: And the “Cucumber Powdery Mildew Control at a compound concentration of 10 ppm or lower” value (Sphaerotheca fuliginea)?
A: A (from 70% to 84% control of cucumber powdery mildew)

Q: And the “Wheat Leaf Rust Control at a compound concentration of 10 ppm or lower” value (Puccinia triticina)?
A: AA (≥85% control of wheat leaf rust)

Q: And the “Asian Soybean Rust Control at a compound concentration of 25 ppm or lower” value (Phakopsora pachyrhizi)?
A: A (from 70% to 84% control of Asian soybean rust)

Q: What about the IC90 (Botrtyis cinerea (Bc)) of the same compound?
A: 0.4 µg/mL (≈ 0.684 µM)

Q: What about the IC90 (Septoria tritici (St)) of the same compound?
A: ≥ 10 µg/mL

Q: And the IC90 [4]?
A: 0.4 µg/mL (≈ 0.684 µM)

Q: What about the IC90 (Rhizoctonia solani (Rs)) of the same compound?
A: 2 µg/mL (≈ 3.42 µM)

Q: And the IC90 [5]?
A: ≥ 2 µg/mL

Q: What about the IC90 [6] of the same compound?
A: 0.4 µg/mL (≈ 0.684 µM)
